According to PMC9367672, “In vitro differences in toddalolactone metabolism in various species and its effect on cytochrome P450 expression” (Pharmaceutical Biology, 2022):
Like-named read-outs stand apart in the source and are kept apart here.

Legend:
[1] = test system: HLMs; experiment: Enzyme kinetics of toddalolactone metabolism in human liver microsomes (oxidative metabolism and glucuronidation); type: in vitro ADME; conditions: HLMs; for V max: toddalolactone 1–200 μM
Method: (§1) The CYP reaction system (200 μL) consisted of 0.1 M potassium phosphate buffer (pH 7.4), an NADPH-generating system (1 mM NADPH, 10 mM G-6-P, 1 unit/mL G-6-PD, 4 mM MgCl2), and liver microsomes or recombinant human microsomes (supersomes). Each of the in vitro enzymatic assays using liver microsomes was linear with respect to incubation time and amount of protein. After a pre-incubation at 37 °C for 3 min, the reactions were initiated by adding NADP^+. After incubating for 60 min, the reactions were quenched by adding 200 μL of ice-cold acetonitrile. Samples were centrifuged at 18,000 g for 15 min at 4 °C and 10 μL of supernatant was analyzed using an HPLC system. NADPH or CYP enzyme sources were not used in the control group to ensure that the metabolic reactions were CYP- and NADPH-dependent. All incubation assays were completed in triplicate. The data are presented as mean ± standard deviation (SD).
(§2) In the UGT reaction system, liver microsomes were incubated in 200 μL of the reaction system containing 4 mM UDPGA, 5 mM MgCl2, 20 µg/mL alamethicin, and 50 mM Tris-HCl buffer (pH 7.4). After pre-incubation at 37 °C for 3 min, UDPGA was added to the mixture to initiate the reactions. The mixtures were incubated at 37 °C for 60 min, followed by the addition of 200 μL of cold methanol to terminate the reactions. After centrifugation at 18,000 g for 15 min, 10 μL of the supernatant was analyzed by HPLC.
(§3) The enzyme kinetics of toddalolactone in oxidative metabolism and glucuronidation were determined by incubating liver microsomes (0.2 mg/mL) or CYPs (15 nM) with different concentrations of toddalolactone (1–200 μM). The kinetic parameters including Km and Vmax were obtained by fitting the experimental data to the Michaelis–Menten equation (Equation (1)), biphasic kinetics equation (Equation (2)), or substrate inhibition equation (Equation (3)) (He et al. [2018]), and the results were graphically represented on Eadie–Hofstee plots. The in vitro intrinsic clearance (CLint) was calculated based on the Vmax/Km ratio. Metabolites were quantified using the standard curve for toddalolactone because of the absence of metabolite standards. All incubations were repeated in three independent experiments. Kinetic constants were expressed with mean ± SD: (1) V=Vmax×[S]/Km+[S] (2) V=Vmax1×[S]/Ks1+[S]+Vmax2×[S]/Ks2+[S] (3) V=Vmax×[S]/Ks+[S]+[S]^2/Ksi where v is the rate of reaction, Vmax is the estimated maximum velocity, [S] is the substrate concentration, and Km is the affinity constant of the substrate; Vmax1 and Vmax2 represent the estimated maximum velocity of the two metabolic phases; Ks1 and Ks2 represent the affinity constants for two metabolic phases; Ks and Ksi are the substrate affinity and inhibition constants, respectively.
(§4) The enzyme kinetics in oxidative metabolism and glucuronidation of toddalolactone were studied, and preliminary experiments were performed to ensure that metabolites were formed in the linear range of both reaction time and microsomal protein concentration. The metabolite with the largest peak area was used to calculate the kinetic parameter values (Km, Vmax and CLint). Based on the results of toddalolactone metabolism in different species, the kinetic parameter values in RLMs, DLMs, MLMs, HLMs, RAMs, MIMs, PLMs, CYP1A1 and CYP3A5 were calculated using P4, P4, P4, P4, P2, P2, P4, P4 and P4 data in oxidative metabolism, respectively. In the glucuronidation reaction, the kinetic parameter values in RLMs, MLMs, HLMs, RAMs and PLMs were calculated using P5, P6, P6, P6 and P5 data, respectively.

[2] = as above; type: in vitro ADME; conditions: human, liver microsomes, pH 7.4, HLMs, Vmax/Km
Method: as §1, §2, §3, §4

[3] = test system: RLMs; experiment: Prediction of in vivo hepatic clearance in rats from RLM kinetics; type: in vitro ADME, rat
Method: The in vivo hepatic clearances in oxidative metabolism and glucuronidation of toddalolactone were calculated using Equations (4)–(6) (Li et al. [2008]): (4) CLint in vitro=∑i=1nVmax(Mi)/Km(Mi) (5) CLint in vivo=CLint in vitro⋅SF (6) CLH=QH⋅fu⋅CLint in vivo/QH+fu⋅CLint in vivo where SF is the milligrams of microsomal protein per gram of liver multiplied by the grams of liver weight; CLH is hepatic clearance; fu is the unbound fraction in the blood (the value of fu was set to 1 due to the absence of available data for toddalolactone); QH is the blood flow in the liver; and Mi is the metabolite of toddalolacone. The physiological parameters to calculate intrinsic clearance were as follows. The liver weight of dogs, rats and humans were 32, 40 and 25.7 g/kg body weight, respectively; the content of microsomal protein was 77.9, 44.8 and 48.8 mg/g of liver; and the blood flow in the liver was 30.9, 55.2 and 20.7 mL/(min ⋅ kg), respectively (Naritomi et al. [2001]).

[4] = Metabolic stability assessment in monkey liver microsomes; type: in vitro ADME; conditions: pH 7.4, MLMs, toddalolactone 20 μM, 0-90 min
Method: as §1, with “NADPH or CYP enzyme sources were not used in the control group to ensure that the metabolic reactions were CYP- and NADPH-dependent. All incubation assays were completed in triplicate. The data are presented as mean ± standard deviation (SD).” left out
In the UGT reaction system, liver microsomes were incubated in 200 μL of the reaction system containing 4 mM UDPGA, 5 mM MgCl2, 20 µg/mL alamethicin, and 50 mM Tris-HCl buffer (pH 7.4). […] After centrifugation at 18,000 g for 15 min, 10 μL of the supernatant was analyzed by HPLC.
Toddalolactone (20 μM) was incubated with different liver microsomes, including HLMs, DLMs, PLMs, MLMs, RAMs, RLMs or MIMs in oxidative metabolism and glucuronidation reaction systems. […] The mixtures were centrifuged at 18,000 g for 15 min at 4 °C and then 10 μL of the supernatant was analyzed by HPLC. […]
The peak areas of toddalolactone and its metabolites were detected using a HPLC system (Shimadzu, Kyoto, Japan). […]

[5] = P450-catalyzed oxidation, P4 formation
[6] = glucuronide metabolism, P6 formation

COc1cc2oc(=O)ccc2c(OC)c1C[C@@H](O)C(C)(C)O [toddalolactone]
K m [1, 5]: 244.63 ± 78.99 µM | V max [1, 5]: 35.07 ± 7.16 pmol/min/mg protein | K m [1, 6]: 66.33 ± 20.46 µM | V max [1, 6]: 50.16 ± 8.75 pmol/min/mg protein | microsomal CLint [2, 5]: 0.14 µL/min/mg | microsomal CLint [2, 6]: 0.75 µL/min/mg | CLH versus hepatic blood flow (QH) ([3]; RLMs): 1.52% | clearance class according to predicted CLH ([3]; rats): low-clearance (low-clearance drugs (<30% liver blood flow)) | in vivo hepatic clearance (CLH) ([3]; rats, predicted from kinetic parameters of P1–P6, fu set to 1): 1.12 mL/(min/kg body weight) | half-life at 20 μM ([4]; CYP incubation system, read-out: half-life value (T1/2)): 4.08 h | half-life at 20 μM ([4]; UGT incubation system, read-out: T1/2 value): 1.1 h
